Columns and labels:
[1] = test system: FGF signaling (Tg(Dusp6:dsEGFP) reporter); test: Dose response of GFP expression in Tg(Dusp6:dsEGFP) embryos, automated imaging; format: in vivo, zebrafish; settings: Danio rerio; treated at 24 hpf, 6 hours; read-out: EC50, GFP expression in transgenic embryos
Protocol: We tested a series of structurally related analogs of BCI in an in vivo assay. As described in Molina et al. (Nature Chemical Biology, 2009), Tg(Dusp6:dsEGFP) embryos were treated at 24 hours post fertilization with increasing doses of compounds. After 6 hours treatment, embryos were imaged by the IXU ImageXpress (Molecular Devices), and images were processed by Definiens Software. The software identified bright head structures and measured fluorescence.
Under similar conditions, BCI-related analogs were tested and EC50 values measured.

[2] = test system: zebrafish embryo; test: Zebrafish embryo survival after prolonged exposure; format: in vivo
Protocol: We next addressed if BCI and related analogs are detrimental to zebrafish embryo survival after prolong exposure. […] The percentage of embryos that died after 24 hours treatment was 100% at 20 μM.

[3] = target: T1, Cdc25B (Homo sapiens, UniProt P30305); test: OMFP phosphatase assay, Cdc25B; format: biochemical; settings: n=3, OMFP substrate, 15.2 nM-300 μM; read-out: mean in vitro values, Cdc25B
T1 sequence (P30305 1-580): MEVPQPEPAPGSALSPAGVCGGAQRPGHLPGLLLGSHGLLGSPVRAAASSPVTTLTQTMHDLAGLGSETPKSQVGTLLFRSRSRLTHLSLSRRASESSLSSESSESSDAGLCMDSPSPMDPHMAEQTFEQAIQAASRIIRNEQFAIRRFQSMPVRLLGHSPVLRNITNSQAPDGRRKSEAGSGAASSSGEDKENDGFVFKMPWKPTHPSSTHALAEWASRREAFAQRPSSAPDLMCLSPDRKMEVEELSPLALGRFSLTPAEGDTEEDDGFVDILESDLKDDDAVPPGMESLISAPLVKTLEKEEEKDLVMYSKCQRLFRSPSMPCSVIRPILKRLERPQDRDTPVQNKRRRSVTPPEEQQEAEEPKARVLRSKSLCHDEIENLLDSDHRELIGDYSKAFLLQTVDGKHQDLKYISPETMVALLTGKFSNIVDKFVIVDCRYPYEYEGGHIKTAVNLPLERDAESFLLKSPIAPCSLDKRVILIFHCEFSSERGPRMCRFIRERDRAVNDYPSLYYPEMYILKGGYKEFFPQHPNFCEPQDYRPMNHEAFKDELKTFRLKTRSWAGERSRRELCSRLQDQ
Protocol: (§1) Enzyme activities in the presence or absence of BCI were measured using the artificial substrate […] at concentrations equal to the Km of each enzyme (Cdc25B, PTP1B & Dusp3/VHR) and at optimal pH for individual enzyme activity in a 96-well microtiter plate assay based on previously described methods by Lazo et al. (J Med Chem 44, 4042-9 (2001) and Lazo, J. S. et al. Bioorg Med Chem 14, 5643-50 (2006)). Briefly, the standard assay conditions contained 0.02 mg/ml OMFP in assay buffer (30 mM Tris-HCl (pH8.0), 75 mM NaCl, 1 mM EDTA, 0.33% BSA and 1 mM DTT). Fluorescence emission was measured after a sixty-minute incubation period at ambient temperature using a multiwell plate reader (SpectraMax m5, […]; excitation 485 nm, emission 525 nm). Sodium orthovanadate (100 μM) was used as a positive control for full phosphatase inhibition. IC50 concentrations were determined from three experiments using 10 concentrations of BCI ranging from 300 μM to 15.2 nM and GraphPad Prism 5.0 software.

[4] = target: Dusp3/VHR (Homo sapiens, UniProt P51452); test: OMFP phosphatase assay, Dusp3/VHR; format: biochemical; settings: n=3, OMFP substrate, 15.2 nM-300 μM; read-out: mean in vitro values, VHR
Protocol: as §1

[5] = target: T2, ERK2-stimulated Dusp6 (Homo sapiens, UniProt Q16828); test: ERK2-induced activation of Dusp6, OMFP dephosphorylation; format: biochemical; settings: BCI 100 μM
T2 construct: His; made in house
Protocol: For OMFP based ERK2 induced activation of Dusp6, recombinant His-tagged Dusp6 was expressed from a bacterial expression vector and 250 ng were incubated with the indicated concentrations of NSC95397 or BCI. OMFP was added at its apparent Km (100 μM) (Vogt, A. et al. J Biol Chem 280, 19078-86 (2005)). The final reaction volume was 15 μl. After 1 h at RT, OMF fluorescence was measured on an M5 multimode reader (Molecular Devices) at excitation/emission wavelengths of 485/525 nm. To assay activated Dusp6, 210 ng or 2.1 μg of recombinant ERK2 (Cell signaling) were added to Dusp6(210 ng)/BCI(100 μM) mixtures to measure activation at 1:1 and 1:10 ratio of substrate to enzyme. OMFP was immediately added and fluorescence (ex485/em525 nm) was read every 10 min for 130 min. Fold activation was calculated at 60 mins in each experiment.

[6] = test system: FGF target genes sef and spry4; test: Semi-quantitative RT-PCR of FGF target genes in treated embryos; format: in vivo, zebrafish; settings: 24 hpf, 6 hours, 10 μM and 20 μM, n=3
Protocol: Zebrafish embryos were treated at 24 hpf for 6 hours with BCI at 10 μM and 20 μM followed by total RNA extraction with Trizol (Invitrogen). cDNA synthesis with SuperScript II Reverse Transcriptase (Invitrogen) was performed as described by manufacture's protocol and by Tsang et al. 17. For PCR reaction, HotMaster Taq (Eppendorf) was used with the following primers: […]
Cycle conditions were: 94° C. 30 sec, 55° C. 45 sec, 72° C. 40 sec, for 25 cycles. PCR products were resolved on 3% agarose gels.

T2 sequence (Q16828 whole entry): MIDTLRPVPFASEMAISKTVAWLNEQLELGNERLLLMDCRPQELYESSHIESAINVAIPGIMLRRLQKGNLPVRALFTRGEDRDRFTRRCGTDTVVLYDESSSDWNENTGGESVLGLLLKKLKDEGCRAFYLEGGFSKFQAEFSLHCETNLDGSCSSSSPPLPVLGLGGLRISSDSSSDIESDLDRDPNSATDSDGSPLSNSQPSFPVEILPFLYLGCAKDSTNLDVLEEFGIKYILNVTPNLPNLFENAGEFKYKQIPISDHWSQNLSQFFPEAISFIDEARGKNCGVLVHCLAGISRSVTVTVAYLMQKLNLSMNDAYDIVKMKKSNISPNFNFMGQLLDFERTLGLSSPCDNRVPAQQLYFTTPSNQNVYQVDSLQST
T2 sequence (P28482 whole entry partner): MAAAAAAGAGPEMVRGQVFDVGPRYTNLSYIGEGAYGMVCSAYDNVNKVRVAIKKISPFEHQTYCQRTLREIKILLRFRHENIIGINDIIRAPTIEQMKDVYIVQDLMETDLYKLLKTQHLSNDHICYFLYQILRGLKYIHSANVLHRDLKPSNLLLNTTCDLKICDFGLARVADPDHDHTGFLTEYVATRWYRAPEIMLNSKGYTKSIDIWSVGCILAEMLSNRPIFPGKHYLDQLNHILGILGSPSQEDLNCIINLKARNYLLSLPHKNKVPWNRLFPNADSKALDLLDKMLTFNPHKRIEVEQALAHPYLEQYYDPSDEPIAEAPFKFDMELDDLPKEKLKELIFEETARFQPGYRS
Chain of Dusp3/VHR (P51452 whole entry): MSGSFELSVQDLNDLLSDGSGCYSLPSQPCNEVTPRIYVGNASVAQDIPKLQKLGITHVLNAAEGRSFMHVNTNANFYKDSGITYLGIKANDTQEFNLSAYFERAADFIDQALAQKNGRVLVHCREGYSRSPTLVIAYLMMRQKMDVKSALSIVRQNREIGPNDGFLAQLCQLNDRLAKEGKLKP

O=C1/C(=C/c2ccccc2)C(NC2CCCCC2)c2ccccc21 (centres unmarked) [Compound 3, (E)-2-benzylidene-3-(cyclohexylamino)-2,3-dihydro-1H-inden-1-one]
EC50 [1]: 11.4 µM
percentage of embryos that died after 24 hours treatment ([2]; 20 μM, 24 hours): 100%
effect of prolonged exposure on embryos ([2]; high doses (>10 μM) for 24 hours): embryo defects, such as tail necrosis and even death
IC50 [3]: > 300 µM
IC50 [4]: > 300 µM
inhibition of ERK2-stimulated Dusp6 dephosphorylation of OMFP ([5]; ERK2 three-fold stimulation (1:1)): 57%
inhibition of ERK2-stimulated Dusp6 dephosphorylation of OMFP ([5]; ratio of ERK2 to Dusp6 10:1, 7-fold enhancement): 30%
expression of sef and spry4 [6]: increase

From patent US9127016B2, “Small molecule inhibitors of Dusp6 and uses therefor” (University of Pittsburgh—Of the Commonwealth System of …, priority 2009, dated 2015)
